Where a name gives a salt, the structure may show the parent alone. Read-outs that look alike come from different tables or passages of the source.
Target: SARS-CoV-2 3CLpro (Severe acute respiratory syndrome coronavirus 2, UniProt P0DTD1)
Assay: biochemical
Format: biochemical
Set-up: Replicate_1 / Replicate_2 / mean / mean (LOPAC_screen_w_protease): unit not given here
Settings: for inhibition at 5 µM: 4 h; for mean (LOPAC screen with protease) / Replicate_1 (LOPAC screen with protease) / Replicate_2 (LOPAC screen with protease): primary screen at 5 µM
[1] = sheet LOPAC_screen_w_protease, primary screen with protease, compound at 5 µM, mean of two replicates, read-out: mean
[2] = sheet LOPAC_screen_w_protease, primary screen with protease, compound at 5 µM, replicate 1, read-out: Replicate_1
[3] = sheet LOPAC_screen_w_protease, primary screen with protease, compound at 5 µM, replicate 2, read-out: Replicate_2
[4] = sheet LOPAC_screen_w_protease, LOPAC1280 primary screen at 5 µM, with protease, mean of two replicates, read-out: mean
[5] = sheet LOPAC_screen_w_protease, LOPAC1280 primary screen at 5 µM, with protease, replicate 1, read-out: Replicate_1
[6] = sheet LOPAC_screen_w_protease, LOPAC1280 primary screen at 5 µM, with protease, replicate 2, read-out: Replicate_2
[7] = sheet LOPAC_screen_w_protease, LOPAC1280 primary screen at 5 µM, with protease, mean of the two replicates
[8] = sheet LOPAC_screen_w_protease, LOPAC1280 primary screen at 5 µM, with protease, replicate 1
[9] = sheet LOPAC_screen_w_protease, LOPAC1280 primary screen at 5 µM, with protease, replicate 2
[10] = sheet LOPAC_screen_w_protease, mean of two replicates
[11] = sheet LOPAC_screen_w_protease, replicate 1
[12] = sheet LOPAC_screen_w_protease, replicate 2
[13] = sheet LOPAC_screen_w_protease, primary screen with protease, mean of two replicates, read-out: mean
[14] = sheet LOPAC_screen_w_protease, primary screen with protease, replicate 1, read-out: Replicate_1
[15] = sheet LOPAC_screen_w_protease, primary screen with protease, replicate 2, read-out: Replicate_2
[16] = sheet LOPAC_screen_w_protease, LOPAC1280 primary screen with protease, 5 µM compound, mean of the two replicates, read-out: mean
[17] = sheet LOPAC_screen_w_protease, LOPAC1280 primary screen with protease, 5 µM compound, replicate 1, read-out: Replicate_1
[18] = sheet LOPAC_screen_w_protease, LOPAC1280 primary screen with protease, 5 µM compound, replicate 2, read-out: Replicate_2
[19] = sheet LOPAC_screen_w_protease, LOPAC1280 primary screen with protease, 5 µM compound, mean of the two replicates
[20] = sheet LOPAC_screen_w_protease, LOPAC1280 primary screen with protease, 5 µM compound, replicate 1
[21] = sheet LOPAC_screen_w_protease, LOPAC1280 primary screen with protease, 5 µM compound, replicate 2
[22] = sheet LOPAC_screen_w_protease, primary screen with protease, compound at 5 µM, mean of two replicates
[23] = sheet LOPAC_screen_w_protease, primary screen with protease, compound at 5 µM, replicate 1
[24] = sheet LOPAC_screen_w_protease, primary screen with protease, compound at 5 µM, replicate 2
[25] = LOPAC1280 primary screen with protease, 5 µM compound, mean of two replicates
[26] = LOPAC1280 primary screen with protease, 5 µM compound, replicate 1
[27] = LOPAC1280 primary screen with protease, 5 µM compound, replicate 2
[28] = sheet LOPAC_screen_w_protease, primary screen with protease, 5 µM, mean of two replicates, read-out: mean
[29] = sheet LOPAC_screen_w_protease, primary screen with protease, 5 µM, replicate 1, read-out: Replicate_1
[30] = sheet LOPAC_screen_w_protease, primary screen with protease, 5 µM, replicate 2, read-out: Replicate_2

CC(C)N(CCC(C(N)=O)(c1ccccc1)c1ccccn1)C(C)C (centres unmarked) [Disopyramide phosphate] was tested, and the inhibition at 5 µM [1] was 2.74%, the inhibition at 5 µM [2] was 4.07% and the inhibition at 5 µM [3] was 1.41%.

With Oc1c2ccccc2c2c3c(cccc13)N=N2 [SP600125] the inhibition at 5 µM [4] was -1.9%, the inhibition at 5 µM [5] was 0.641% and the inhibition at 5 µM [6] was -4.45%.

For CN1CCN(c2ccc3ccccc3n2)CC1.O=C(O)/C=C\C(=O)O.O=C(O)/C=C\C(=O)O [Quipazine, N-methyl-, dimaleate], the mean [7] was 0.6078, the Replicate_1 [8] was 1.027 and the Replicate_2 [9] was 0.1891.

With CCCn1c(=O)c2[nH]c(C3CCCC3)nc2n(CCCOC(=O)c2ccc(S(=O)(=O)F)cc2)c1=O [FSCPX] the “mean (LOPAC screen with protease)” value [10] was 6.832, the “Replicate_1 (LOPAC screen with protease)” value [11] was 8.115 and the “Replicate_2 (LOPAC screen with protease)” value [12] was 5.548.

NCCCCCCCCCCN [1,10-Diaminodecane] was tested, and the inhibition at 5 µM [13] was 2.36%, the inhibition at 5 µM [14] was 3.01% and the inhibition at 5 µM [15] was 1.71%.

For CC[C@H](C)C(=O)O[C@H]1CCC=C2C=C[C@H](C)[C@H](CC[C@@H]3C[C@@H](O)CC(=O)O3)[C@H]21 [Mevastatin], the inhibition at 5 µM [16] was 4.58%, the inhibition at 5 µM [17] was 3.98% and the inhibition at 5 µM [18] was 5.17%.

Foliosidine gave a mean (sheet LOPAC_screen_w_protease, primary screen of LOPAC1280 at 5 µM with protease, mean of the two replicates) of 3.597 and a Replicate_2 (sheet LOPAC_screen_w_protease, primary screen of LOPAC1280 at 5 µM with protease, replicate 2) of 2.375.

For CC(N)Cc1c[nH]c2ccc(O)cc12.O=C(O)/C=C\C(=O)O (stereo not drawn) [alpha-Methyl-5-hydroxytryptamine maleate], the mean [19] was 6.214, the Replicate_1 [20] was 5.086 and the Replicate_2 [21] was 7.342.

Cl.O=C(O)Cc1c[nH]cn1 [Imidazole-4-acetic acid hydrochloride] gave a mean [7] of 0.8241, a Replicate_1 [8] of 2.255 and a Replicate_2 [9] of -0.6064.

Work on C[C@H](O)[C@H](O)[C@H]1CNc2nc(N)[nH]c(=O)c2N1.Cl yielded a mean [22] of 3.136, a Replicate_1 [23] of 3.694 and a Replicate_2 [24] of 2.577.

Cc1cc(C(C)(C)C)c(O)c(C)c1CC1=NCCN1 [Oxymetazoline hydrochloride] gave an inhibition at 5 µM [16] of 5.36%, an inhibition at 5 µM [17] of 4.63% and an inhibition at 5 µM [18] of 6.09%.

C[C@@H](N)[C@H]1CC[C@H](C(=O)Nc2ccncc2)CC1.Cl.Cl [Y-27632 dihydrochloride] was tested, and the “mean (LOPAC_screen_w_protease)” value [25] was 1.325, the “Replicate_1 (LOPAC_screen_w_protease)” value [26] was 2.12 and the “Replicate_2 (LOPAC_screen_w_protease)” value [27] was 0.5298.

OCCN1CCN(CC/C=C2/c3ccccc3Sc3ccc(C(F)(F)F)cc32)CC1 [cis-(Z)-Flupenthixol dihydrochloride] showed an inhibition at 5 µM [13] of 2.17%, an inhibition at 5 µM [14] of 2.7% and an inhibition at 5 µM [15] of 1.63%.

With CN(C)CCCN1c2ccccc2Sc2ccccc21 [Promazine hydrochloride] the inhibition at 5 µM [28] was -0.303%, the inhibition at 5 µM [29] was -0.0432% and the inhibition at 5 µM [30] was -0.563%.

Compound CSc1ccc2c(c1)C(N1CCN(C)CC1)Cc1ccccc1S2 (centres unmarked) [Methiothepin mesylate] has an inhibition at 5 µM [16] of 4.09%, an inhibition at 5 µM [17] of 3.76% and an inhibition at 5 µM [18] of 4.42%.

Cl.NC[C@@H]1O[C@H](C23CC4CC(CC(C4)C2)C3)Cc2c1ccc(O)c2O [A-77636 hydrochloride] was tested, and the “mean (LOPAC screen with protease)” value [10] was 61.6634, the “Replicate_1 (LOPAC screen with protease)” value [11] was 62.3885 and the “Replicate_2 (LOPAC screen with protease)” value [12] was 60.9383.

For COC(=O)C1=C(C)NC(C)=C([N+](=O)[O-])C1c1ccccc1C(F)(F)F (racemic) [(±)-Bay K 8644], the mean [22] was 3.088, the Replicate_1 [23] was 2.534 and the Replicate_2 [24] was 3.642.

In the case of Cc1ccc(S(=O)(=O)NC(=O)NN2CCCCCC2)cc1 [Tolazamide], the inhibition at 5 µM [28] is reported as -0.908%, the inhibition at 5 µM [29] is reported as -0.0393% and the inhibition at 5 µM [30] is reported as -1.78%.

For C[C@](N)(Cc1ccc(O)cc1)C(=O)O [L-alpha-Methyl-p-tyrosine], the mean [19] was 4.979, the Replicate_1 [20] was 5.136 and the Replicate_2 [21] was 4.822.

COC(=O)[C@H](NC(=O)c1cc(-c2ccccc2)nc2ccccc12)c1ccccc1 [SB 218795] showed a mean [7] of 0.7338, a Replicate_1 [8] of 2.781 and a Replicate_2 [9] of -1.313.

COc1ccc2c(c1)c(CC(=O)O)c(C)n2C(=O)c1ccc(Cl)cc1 [Indomethacin] was tested, and the Replicate_1 was 3.273, the Replicate_2 was 1.395 and the mean was 2.334.

With C#C[C@]1(O)CC[C@H]2[C@@H]3CCC4=Cc5nc6nc7ccccc7n6cc5C[C@]4(C)[C@H]3CC[C@@]21C [WIN 62,577] the Replicate_1 was -0.8505, the Replicate_2 was 3.428 and the mean was 1.289.

NCCCC(=O)O [GABA] was tested, and the “mean (LOPAC_screen_w_protease)” value [25] was 1.638, the “Replicate_1 (LOPAC_screen_w_protease)” value [26] was 1.648 and the “Replicate_2 (LOPAC_screen_w_protease)” value [27] was 1.628.

With O=C(O)/C=C\C(=O)O.O=C(O)/C=C\C(=O)O.c1cc(CN2CCCCC2)cc(OCCCNc2nc3ccccc3s2)c1 [SKF 95282 dimaleate] the mean (sheet LOPAC_screen_w_protease, LOPAC1280 at 5 µM, mean of two replicates) was 0.9471, the Replicate_1 (sheet LOPAC_screen_w_protease, LOPAC1280 at 5 µM, replicate 1) was 0.9833 and the Replicate_2 (sheet LOPAC_screen_w_protease, LOPAC1280 at 5 µM, replicate 2) was 0.911.

CN1C(=O)CC[C@H]1c1cccnc1 [(-)-Cotinine] gave a mean (sheet LOPAC_screen_w_protease, primary screen with protease, mean of two replicates) of 2.4459, a Replicate_1 (sheet LOPAC_screen_w_protease, primary screen with protease, replicate 1) of 2.442 and a Replicate_2 (sheet LOPAC_screen_w_protease, primary screen with protease, replicate 2) of 2.45.

COc1ccc(/C=C/C(=O)Nc2ccccc2C(=O)O)cc1OC [Tranilast] showed an inhibition at 5 µM (read-out: Replicate_1) of 0.566%, an inhibition at 5 µM (read-out: Replicate_2) of -2.13% and an inhibition at 5 µM (read-out: mean) of -0.784%.

For CC1=C(C)C(=O)C(CCCCC#CCCCC#CCO)=C(C)C1=O [AA-861], the inhibition at 5 µM [13] was 2.27%, the inhibition at 5 µM [14] was 3.11% and the inhibition at 5 µM [15] was 1.43%.

COc1ccccc1N1CCN(CCN2C(=O)CC3(CCCC3)CC2=O)CC1.Cl.Cl [BMY 7378 dihydrochloride] was tested, and the mean [22] was 2.822, the Replicate_1 [23] was 2.1144 and the Replicate_2 [24] was 3.53.

In the case of CC(C)Cn1c(=O)n(C)c(=O)c2[nH]cnc21 [3-Isobutyl-1-methylxanthine], the “mean (LOPAC_screen_w_protease)” value (LOPAC1280 primary screen with protease, 5 µM compound, mean of the two replicates) is reported as 2.03, the “Replicate_1 (LOPAC_screen_w_protease)” value [26] is reported as -0.07674 and the “Replicate_2 (LOPAC_screen_w_protease)” value [27] is reported as 4.138.

In the case of CN1[C@@H]2CC[C@H]1C[C@@H](OC(c1ccccc1)c1ccccc1N)C2 (some centres unmarked) [Aminobenztropine], the inhibition at 5 µM [1] is reported as 3.04%, the inhibition at 5 µM [2] is reported as 2.54% and the inhibition at 5 µM [3] is reported as 3.53%.

With CS(=O)(=O)O.Cn1cc(C(F)(F)F)nc1-c1ccc(OCC(O)CNCCOc2ccc(O)c(C(N)=O)c2)cc1 (centres unmarked) [CGP 20712A methanesulfonate] the mean [7] was 0.4402, the Replicate_1 [8] was 1.402 and the Replicate_2 [9] was -0.5212.

In the case of Cl.NCCNC(=O)c1ncsc1-c1cccc(F)c1 [Ro 41-1049 hydrochloride], the mean (sheet LOPAC_screen_w_protease, primary screen with protease, 5 µM, mean of two replicates) is reported as -0.1611, the Replicate_1 (sheet LOPAC_screen_w_protease, primary screen with protease, 5 µM, replicate 1) is reported as 1.896 and the Replicate_2 (sheet LOPAC_screen_w_protease, primary screen with protease, 5 µM, replicate 2) is reported as -2.218.

For CC(C)[N+](C)(CCOC(=O)C1c2ccccc2Oc2ccccc21)C(C)C [Propantheline bromide], the inhibition at 5 µM [28] was 0.204%, the inhibition at 5 µM [29] was 0.838% and the inhibition at 5 µM [30] was -0.43%.

With CC(C)COC(=O)OCN1C(=O)CN(CCN2CC(=O)N(COC(=O)OCC(C)C)C(=O)C2)CC1=O [Sobuzoxane] the inhibition at 5 µM [13] was 2.23%, the inhibition at 5 µM [14] was 2.79% and the inhibition at 5 µM [15] was 1.66%.

Cl.Nc1c2c(nc3ccccc13)CCCC2 showed a Replicate_1 of 1.645, a Replicate_2 of 0.8036 and a mean of 1.2241.

With CCCn1c(=O)c2c(ncn2C)n(CCC)c1=O [1,3-Dipropyl-7-methylxanthine] the mean [22] was 3.018, the Replicate_1 [23] was 3.463 and the Replicate_2 [24] was 2.572.

CCCCCCCCCCCCCCSCC(=O)O [Tetradecylthioacetic acid] showed an inhibition at 5 µM [4] of -1.74%, an inhibition at 5 µM [5] of -1.66% and an inhibition at 5 µM [6] of -1.82%.
